Reference: ChEMBL document CHEMBL5244215, “Recent advancement of piperidine moiety in treatment of cancer- A review” (Eur J Med Chem, 2018)
Values after ≈ are worked out from the molar mass of the structure shown. Counter-ions that a name gives are not always drawn.

What was measured:
K562 [1] = assay: cells; format: functional, cell-based; conditions: Homo sapiens
Description: Antiproliferative activity against human K562 cells assessed as inhibition of cell proliferation incubated for 48 to 72 hrs by MTT assay

REH = assay: cells; format: functional, cell-based; conditions: Homo sapiens
Description: Antiproliferative activity against human REH cells assessed as inhibition of cell proliferation incubated for 48 to 72 hrs by MTT assay

HCT-116 = assay: cells; format: functional, cell-based; conditions: Homo sapiens, HCT-116, 48 h
KM12 = assay: cells; format: functional, cell-based; conditions: Homo sapiens, KM12, 48 h
PANC-1 = assay: cells; format: functional; conditions: Homo sapiens, time 48 hrs
Description: Growth inhibition at human PANC-1 cells incubated for 48 hrs by SRB assay

K562 [2] = assay: cells; format: functional, cell-based; conditions: Homo sapiens; remark: listed apart in the source
Description: Antileukemic activity against human K562 cells assessed as inhibition of cell growth incubated for 48 to 72 hrs by MTT assay

CCRF-CEM [3] = assay: cells; format: functional, cell-based; conditions: Homo sapiens
Description: Antileukemic activity against human CEM cells assessed as inhibition of cell growth incubated for 48 to 72 hrs by MTT assay

cells [4] = format: functional, cell-based; conditions: Homo sapiens, QBC939, light or radiation study, 24 h
Description: Phototoxicity against human QBC939 cells assessed as inhibition of cell growth incubated for 24 hrs followed by irradiated with 54 J/cm^2 of light dose and measured after 24 hrs by MTT colorimetric assay

HepG2 = assay: cells; format: functional, cell-based; conditions: Homo sapiens, HepG2, 48 h
Description: Antiproliferative activity against human HepG2 cells assessed as reduction in cell viability incubated for 48 hrs by MTT spectrophotometric assay

IMR-32 [5] = assay: cells; format: functional; conditions: Homo sapiens, time 48 hrs
Description: Growth inhibition at human IMR-32 cells incubated for 48 hrs by SRB assay

MCF7 = assay: cells; format: functional; conditions: Homo sapiens, time 48 hrs
Description: Growth inhibition at human MCF7 cells incubated for 48 hrs by SRB assay

COLO 205 [6] = assay: cells; format: functional, cell-based; conditions: Homo sapiens, COLO 205, 0.5 h
Description: Cytotoxicity against human COLO 205 cells assessed as inhibition of cell growth incubated for 30 mins by SRB assay

IMR-32 [7] = assay: cells; format: functional, cell-based; conditions: Homo sapiens, IMR-32, 0.5 h
Description: Cytotoxicity against human IMR-32 cells assessed as inhibition of cell growth incubated for 30 mins by SRB assay

K562 [8] = assay: cells; format: functional, cell-based; conditions: Homo sapiens, K562, 48 h
in vitro = conditions: human, wi-38
NCI-H3122 = assay: cells; format: functional, cell-based; conditions: Homo sapiens
Description: Antiproliferative activity against human NCI-H3122 cells assessed as inhibition of cell proliferation

P388 = assay: cells; format: functional, cell-based; conditions: Mus musculus, P388, 48 h
SK-N-SH = assay: cells; format: functional, cell-based; conditions: Homo sapiens, 48 h
A549 = assay: cells; format: functional, cell-based; conditions: Homo sapiens, A549, 48 h
COLO 205 [9] = assay: cells; format: functional, cell-based; conditions: Homo sapiens, COLO 205, 48 h
HT-29 = assay: cells; format: functional, cell-based; conditions: Homo sapiens, HT-29, 48 h
HCT-15 = assay: cells; format: functional, cell-based; conditions: Homo sapiens, HCT-15, 48 h
BEL-7404 tumor cell line = assay: cells; format: functional, cell-based; conditions: Homo sapiens, BEL-7404, 72 h
Description: Antiproliferative activity against human BEL-7404 tumor cell line assessed as inhibition of cell proliferation incubated for 72 hrs by MTT assay

SiHa = assay: cells; format: functional; conditions: Homo sapiens, time 48 hrs
Description: Growth inhibition at human SiHa cells incubated for 48 hrs by SRB assay

SW-620 = assay: cells; format: functional, cell-based; conditions: Homo sapiens, SW-620, 48 h
HCC 2998 = assay: cells; format: functional, cell-based; conditions: Homo sapiens, HCC 2998, 48 h
HSC-2 = assay: cells; format: functional; conditions: Homo sapiens, time 48 hrs
Description: Cytotoxicity against human HSC-2 cells assessed as reduction in cell viability incubated for 48 hrs by MTT assay

HSC-4 = assay: cells; format: functional; conditions: Homo sapiens, time 48 hrs
Description: Cytotoxicity against human HSC-4 cells assessed as reduction in cell viability incubated for 48 hrs by MTT assay

HSC-3 = assay: cells; format: functional; conditions: Homo sapiens, time 48 hrs
Description: Cytotoxicity against human HSC-3 cells assessed as reduction in cell viability incubated for 48 hrs by MTT assay

Ca9-22 = assay: cells; format: functional; conditions: Homo sapiens, time 48 hrs
Description: Cytotoxicity against human Ca9-22 cells assessed as reduction in cell viability incubated for 48 hrs by MTT assay

CCRF-CEM [10] = assay: cells; format: functional, cell-based; conditions: Homo sapiens, 48 h
MDA-MB-231 = assay: cells; format: functional; conditions: Homo sapiens, time 48 hrs
Description: Growth inhibition at human MDA-MB-231 cells incubated for 48 hrs by SRB assay

cells [11] = format: functional, cell-based, Molt 4/C8; conditions: Homo sapiens, Molt4/C8, 48 h
L1210 = assay: cells; format: functional, cell-based; conditions: Mus musculus, L1210, 48 h
SNB-19 = assay: cells; format: functional; conditions: Homo sapiens, time 72 hrs, read-out: ED50 (the source's name)
Description: Antiproliferative activity against human SNB-19 cells assessed as cell growth inhibition incubated for 72 hrs by WST-1 assay

animal or person = format: functional, organism-based; conditions: Homo sapiens, QBC939, light or radiation study, 336 h

O=C(c1ccc(F)c([N+](=O)[O-])c1)N1CCC(CCCC2CCNCC2)CC1
IC50 (K562 [1]): 2 µM | IC50 (REH): 2.3 µM

CCN1CC[C@@](O)(c2ccc(Oc3ccc(Cl)cc3)cc2)[C@H](C(=O)c2ccc(Oc3ccc(Cl)cc3)cc2)C1
IC50 (HCT-116): 3.8 µM | IC50 (KM12): 2.57 µM

COc1ccc(CNC(=O)NC2CCN(c3cc(-c4ccc(OC)cc4F)ncn3)CC2)cc1
GI50 (PANC-1): 0.47 µM

COc1ccc(C(=O)c2ccc(OCC(=O)N3CCC(CCCC4CCN(C(=O)Nc5ccc(Cl)cc5)CC4)CC3)cc2)c(OC)c1
IC50 (K562 [2]): 1.6 µM | IC50 (CCRF-CEM [3]): 2 µM

COC(C)c1c(C)c2cc3nc(cc4[nH]c(cc5nc(cc1[nH]2)C(C)=C5CCC(=O)O)c(CCC(=O)O)c4C)C(C)=C3C(C)O (stereo not drawn)
IC50 (cells [4]): 9.46 µM

O=C(NC1CCN(Cc2c(F)cccc2F)CC1)c1ccc(Oc2ccccc2)cc1
IC50 (HepG2): 0.25 µM

O=C(Nc1ccccc1)NC1CCN(c2cc(-c3ccc(Oc4ccccc4)cc3)ncn2)CC1
GI50 (IMR-32 [5]): 0.65 µM

COc1ccc(C(=O)c2ccc(OCC(=O)N3CCC(CCCC4CCN(C(=O)Nc5ccc(F)cc5)CC4)CC3)cc2)c(OC)c1
IC50 (K562 [2]): 2.2 µM | IC50 (CCRF-CEM [3]): 2.3 µM

COc1ccc(/C=C/C(=O)c2ccc(OCCN3CCCCC3)cc2)cc1
GI50 (MCF7): < 10 µM

CN1O[C@@H](c2ccccc2)[C@@H]2CN(c3ccccc3)c3oc4ccccc4c(=O)c3[C@@H]21
IC50 (COLO 205 [6]): 12.6 µM

O=C(/C=C/c1ccc(OCCN2CCCCC2)cc1)c1ccccc1
GI50 (MCF7): < 10 µM

O=C(/C=C/c1ccc(Cl)cc1)c1ccc(OCCN2CCCCC2)cc1
GI50 (MCF7): < 10 µM

CN1OC[C@@H]2CN(c3ccccc3)c3oc4cc(Cl)ccc4c(=O)c3[C@@H]21
IC50 (IMR-32 [7]): 10.1 µM

O=c1[nH]cc(F)c(=O)[nH]1 [FLUOROURACIL]
IC50 (K562 [8]): 8.48 µg/mL (≈ 65.2 µM) | IC50 (COLO 205 [6]): 27.7 µM

COc1cc(/C=C/C(=O)N2CCC=C(Cl)C2=O)cc(OC)c1OC
IC50 at 48 h (in vitro): > 60 µM

COc1cc(C2CCN(C(=O)CO)CC2)ccc1Nc1ncc(C(F)(F)F)c(Nc2ccc(C3CCN(C(=O)CO)CC3)cc2OC)n1
IC50 (NCI-H3122): 0.046 µM

O=C1/C(=C/c2ccccc2)CN(C(=O)c2ccc(/C=C/C(=O)c3ccc([N+](=O)[O-])cc3)cc2)C/C1=C\c1ccccc1
IC50 (P388): 0.221 µM

O=C(/C=C/c1ccccc1)c1ccc(OCCN2CCCC2)cc1
GI50 (MCF7): < 10 µM

COC(=O)C1C(=O)CC(c2ccc(OC)cc2)N(c2ccccc2)C1c1ccc(OC)cc1 (stereo not drawn)
IC50 (SK-N-SH): 11 µM | IC50 (A549): 27 µM

O=C(/C=C/c1ccc(OCCN2CCCCC2)cc1)c1ccc(F)cc1
GI50 (MCF7): < 10 µM

CCN1CC[C@@](O)(c2ccc(Oc3ccc(C)cc3)cc2)[C@H](C(=O)c2ccc(Oc3ccc(C)cc3)cc2)C1
IC50 (COLO 205 [9]): 12 µM | IC50 (HT-29): 3.31 µM | IC50 (HCT-15): 3.98 µM

CCOC(=O)C12CC3CC(C1)CC(C(=O)OC1CC(C)(C)N(O)C(C)(C)C1)(C3)C2
IC50 (BEL-7404 tumor cell line): 4.33 µM

COC(=O)c1ccc(NC(=O)NC2CCN(c3cc(-c4ccc(OC)cc4F)ncn3)CC2)cc1
GI50 (SiHa): 0.22 µM

CCN1CC[C@@](O)(c2ccc(Oc3ccccc3)cc2)[C@H](C(=O)c2ccc(Oc3ccccc3)cc2)C1
IC50 (SW-620): 6.61 µM | IC50 (HCC 2998): 12 µM

COc1ccc(C(=O)c2ccc(OCC(=O)N3CCC(CCCC4CCN(C(=S)Nc5ccc(Cl)cc5)CC4)CC3)cc2)c(OC)c1
IC50 (K562 [2]): 2.1 µM | IC50 (CCRF-CEM [3]): 2.1 µM

c1cc2c(cc1CN1CCC(=NN=C3CCN(Cc4ccc5c(c4)OCO5)CC3)CC1)OCO2
IC50 (K562 [8]): 6.35 µg/mL (≈ 13.7 µM)

COc1cc(/C=C2\Cc3ccccc3C2=O)cc(CN2CCCCC2)c1O
CC50 (HSC-2): 7.7 µM | CC50 (HSC-4): 9.9 µM | CC50 (HSC-3): 8.4 µM | CC50 (Ca9-22): 6.5 µM

O=C1/C(=C/c2ccccc2)CN(C(=O)c2ccc(/C=C/C(=O)c3ccccc3)cc2)C/C1=C\c1ccccc1
IC50 (CCRF-CEM [10]): 1.58 µM

COc1cccc2c1C(=O)c1c(O)c3c(c(O)c1C2=O)C[C@@](O)(C(=O)CO)C[C@@H]3O[C@H]1C[C@H](N)[C@H](O)[C@H](C)O1 [DOXORUBICIN HYDROCHLORIDE]
IC50 (IMR-32 [7]): 1.7 µM

COc1ccc(CNC(=O)NC2CCN(c3cc(-c4ccc(Oc5ccccc5)cc4)ncn3)CC2)cc1
GI50 (MDA-MB-231): 0.2 µM

O=C1/C(=C/c2ccccc2)CN(C(=O)c2ccc(/C=C/C(=O)c3ccc(O)cc3)cc2)C/C1=C\c1ccccc1
IC50 (cells [11]): 1.6 µM | IC50 (L1210): 5.34 µM

Cn1cnc2nc(SCCN3CCCCC3)nc(SCCN3CCCCC3)c21
EC50 (SNB-19): 9.18 µg/mL (≈ 21.8 µM)

O=C(/C=C/c1ccccc1)c1ccc(OCCN2CCCCC2)cc1
GI50 (MCF7): < 10 µM

COc1ccc(/C2=C3\C=CC(=N3)/C(c3ccc(OC)cc3)=c3/cc/c([nH]3)=C(\c3ccc(OC)cc3)C3=NC(C(N4CCCCC4)=C3)C(c3ccc(OC)cc3)c3ccc2[nH]3)cc1 (stereo not drawn)
IC50 (animal or person): 5.48 µM
